Test system: Detoxification protein genes
Experiment: DNA chip mRNA expression in yeast, detoxification protein genes (Table 8)
Type: cell-based, Saccharomyces cerevisiae S288C
Summary of the method: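 Expression change after 2 h toxicant exposure (growth-inhibiting, sub-lethal) of log-phase S. cerevisiae S288C at 25° C. Oligo-dT-purified mRNA was labeled with Cy3-dUTP or Cy5-dUTP and hybridized >12 h at 65° C. to a genome-wide chip; ratio of scanned fluorescence to control.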

N#Cc1c(Cl)c(Cl)c(Cl)c(C#N)c1Cl [(9), 2,4,5,6-tetrachloro-1,3-benzenedicarbonitrile]
The level of expressed mRNA in the presence of chemical substance/The level of expressed mRNA in the absence of chemical substance (yeast gene YBR244W): 1.4
The level of expressed mRNA in the presence of chemical substance/The level of expressed mRNA in the absence of chemical substance (yeast gene YBR293W): 5.5
The level of expressed mRNA in the presence of chemical substance/The level of expressed mRNA in the absence of chemical substance (yeast gene YCL035C): 1.9
The level of expressed mRNA in the presence of chemical substance/The level of expressed mRNA in the absence of chemical substance (yeast gene YCL069W): 1.2
The level of expressed mRNA in the presence of chemical substance/The level of expressed mRNA in the absence of chemical substance (yeast gene YCR083W): 1.8
The level of expressed mRNA in the presence of chemical substance/The level of expressed mRNA in the absence of chemical substance (yeast gene YDL100C): 5.4
The level of expressed mRNA in the presence of chemical substance/The level of expressed mRNA in the absence of chemical substance (yeast gene YDL168W): 8.2
The level of expressed mRNA in the presence of chemical substance/The level of expressed mRNA in the absence of chemical substance (yeast gene YDR256C): 5.2
The level of expressed mRNA in the presence of chemical substance/The level of expressed mRNA in the absence of chemical substance (yeast gene YDR453C): 4.5
The level of expressed mRNA in the presence of chemical substance/The level of expressed mRNA in the absence of chemical substance (yeast gene YDR513W): 4.6
The level of expressed mRNA in the presence of chemical substance/The level of expressed mRNA in the absence of chemical substance (yeast gene YDR538W): 0.3
The level of expressed mRNA in the presence of chemical substance/The level of expressed mRNA in the absence of chemical substance (yeast gene YEL027W): 0.9
The level of expressed mRNA in the presence of chemical substance/The level of expressed mRNA in the absence of chemical substance (yeast gene YEL065W): 0.1
The level of expressed mRNA in the presence of chemical substance/The level of expressed mRNA in the absence of chemical substance (yeast gene YER185W): 2.9
The level of expressed mRNA in the presence of chemical substance/The level of expressed mRNA in the absence of chemical substance (yeast gene YFL050C): 0.5
The level of expressed mRNA in the presence of chemical substance/The level of expressed mRNA in the absence of chemical substance (yeast gene YGL013C): 3.0
The level of expressed mRNA in the presence of chemical substance/The level of expressed mRNA in the absence of chemical substance (yeast gene YGL254W): 3.1
The level of expressed mRNA in the presence of chemical substance/The level of expressed mRNA in the absence of chemical substance (yeast gene YGR088W): 1.5
The level of expressed mRNA in the presence of chemical substance/The level of expressed mRNA in the absence of chemical substance (yeast gene YGR138C): 0.5
The level of expressed mRNA in the presence of chemical substance/The level of expressed mRNA in the absence of chemical substance (yeast gene YGR197C): 16.7
The level of expressed mRNA in the presence of chemical substance/The level of expressed mRNA in the absence of chemical substance (yeast gene YGR209C): 2.4
The level of expressed mRNA in the presence of chemical substance/The level of expressed mRNA in the absence of chemical substance (yeast gene YGR224W): 0.9
The level of expressed mRNA in the presence of chemical substance/The level of expressed mRNA in the absence of chemical substance (yeast gene YHL040C): 1.1
The level of expressed mRNA in the presence of chemical substance/The level of expressed mRNA in the absence of chemical substance (yeast gene YHL047C): 1.2
The level of expressed mRNA in the presence of chemical substance/The level of expressed mRNA in the absence of chemical substance (yeast gene YHR008C): 1.7
The level of expressed mRNA in the presence of chemical substance/The level of expressed mRNA in the absence of chemical substance (yeast gene YHR048W): 4.5
The level of expressed mRNA in the presence of chemical substance/The level of expressed mRNA in the absence of chemical substance (yeast gene YHR053C): 4.5
The level of expressed mRNA in the presence of chemical substance/The level of expressed mRNA in the absence of chemical substance (yeast gene YHR055C): 3.9
The level of expressed mRNA in the presence of chemical substance/The level of expressed mRNA in the absence of chemical substance (yeast gene YIR002C): 1.7
The level of expressed mRNA in the presence of chemical substance/The level of expressed mRNA in the absence of chemical substance (yeast gene YIR038C): 4.6
The level of expressed mRNA in the presence of chemical substance/The level of expressed mRNA in the absence of chemical substance (yeast gene YJL101C): 3.1
The level of expressed mRNA in the presence of chemical substance/The level of expressed mRNA in the absence of chemical substance (yeast gene YJR104C): 1.9
The level of expressed mRNA in the presence of chemical substance/The level of expressed mRNA in the absence of chemical substance (yeast gene YKL026C): 7.5
The level of expressed mRNA in the presence of chemical substance/The level of expressed mRNA in the absence of chemical substance (yeast gene YKL064W): 2.4
The level of expressed mRNA in the presence of chemical substance/The level of expressed mRNA in the absence of chemical substance (yeast gene YKR066C): 0.7
The level of expressed mRNA in the presence of chemical substance/The level of expressed mRNA in the absence of chemical substance (yeast gene YKR105C): 1.0
The level of expressed mRNA in the presence of chemical substance/The level of expressed mRNA in the absence of chemical substance (yeast gene YKR106W): 10.5
The level of expressed mRNA in the presence of chemical substance/The level of expressed mRNA in the absence of chemical substance (yeast gene YLL028W): 1.2
The level of expressed mRNA in the presence of chemical substance/The level of expressed mRNA in the absence of chemical substance (yeast gene YLL057C): 121.8
The level of expressed mRNA in the presence of chemical substance/The level of expressed mRNA in the absence of chemical substance (yeast gene YLL060C): 13.0
The level of expressed mRNA in the presence of chemical substance/The level of expressed mRNA in the absence of chemical substance (yeast gene YLR043C): 2.8
The level of expressed mRNA in the presence of chemical substance/The level of expressed mRNA in the absence of chemical substance (yeast gene YLR046C): 1.0
The level of expressed mRNA in the presence of chemical substance/The level of expressed mRNA in the absence of chemical substance (yeast gene YML028W): 0.8
The level of expressed mRNA in the presence of chemical substance/The level of expressed mRNA in the absence of chemical substance (yeast gene YML116W): 1.4
The level of expressed mRNA in the presence of chemical substance/The level of expressed mRNA in the absence of chemical substance (yeast gene YMR015C): 0.1
The level of expressed mRNA in the presence of chemical substance/The level of expressed mRNA in the absence of chemical substance (yeast gene YMR038C): 2.4
The level of expressed mRNA in the presence of chemical substance/The level of expressed mRNA in the absence of chemical substance (yeast gene YNL239W): 2.5
The level of expressed mRNA in the presence of chemical substance/The level of expressed mRNA in the absence of chemical substance (yeast gene YNL241C): 3.4
The level of expressed mRNA in the presence of chemical substance/The level of expressed mRNA in the absence of chemical substance (yeast gene YNL259C): 1.6
The level of expressed mRNA in the presence of chemical substance/The level of expressed mRNA in the absence of chemical substance (yeast gene YOL158C): 1.7
The level of expressed mRNA in the presence of chemical substance/The level of expressed mRNA in the absence of chemical substance (yeast gene YOR031W): 0.7
The level of expressed mRNA in the presence of chemical substance/The level of expressed mRNA in the absence of chemical substance (yeast gene YOR153W): 3.2
The level of expressed mRNA in the presence of chemical substance/The level of expressed mRNA in the absence of chemical substance (yeast gene YOR247W): 0.1
The level of expressed mRNA in the presence of chemical substance/The level of expressed mRNA in the absence of chemical substance (yeast gene YOR251C): 0.8
The level of expressed mRNA in the presence of chemical substance/The level of expressed mRNA in the absence of chemical substance (yeast gene YOR273C): 0.6
The level of expressed mRNA in the presence of chemical substance/The level of expressed mRNA in the absence of chemical substance (yeast gene YPL163C): 0.1
The level of expressed mRNA in the presence of chemical substance/The level of expressed mRNA in the absence of chemical substance (yeast gene YPR200C): 4.7

From patent US8192962B2, “Processes for detecting toxic substances” (Daikin Industries, Ltd., priority 2001, dated 2012)
